# Literature values, collected in patent US20190070157A1, “HYPERBARIC SOLUTION INJECTION OF LEVOBUPIVACAINE HYDROCHLORIDE COMPRISING LEVOBUPIVACAINE HYDROCHLORIDE” (NEON LABORATORIES LIMITED, priority 2015, published 2019).
# Conditions: animal studies, compared with bupivacaine
structure (smiles),measurement,value
CCCCN1CCCC[C@H]1C(=O)Nc1c(C)cccc1C [Levobupivacaine],risk of cardiovascular and CNS toxicity,lower risk of cardiovascular and CNS toxicity than bupivacaine
